Legend:
[1] = tested on: adult rat cardiomyocytes; assay: Caspase-Glo 9 and 3/7 assays of H2O2 induced apoptosis; type: cell-based; conditions: 3 μM inhibitor 30 min, 100 nM HASF 30 min, 200 μM H2O2 3 hours
Procedure: FIGS. 2B and 2C are bar graphs showing relative caspase activity. Adult rat cardiomyocytes were freshly isolated and treated ±10 nM of HASF for 30 min, and then challenged with 100 μM of H2O2 for various time points. H2O2 induced apoptosis in cardiomyocytes was evidenced by the dynamic increase in the activities of the initiator Caspase 9 and effector Caspase […] at 5 h, 7 h and 9 h respectively. Y axis represent the relative amount of luminescence indicating the relative amount of active Caspase activities. ** P<0.01 and *** P<0.001. Data are presented as means±standard deviation of triplicates.
FIG. 3C is a bar graph showing fold-change in caspase activity. Serum-starved adult rat cardiomyocytes were treated with 3 μM PKC inhibitors or vehicle DMSO for 30 minutes, then 100 nM HASF recombinant protein was added for 30 minutes followed by treatment with 200 μM H2O2 for 3 hours. Apoptosis was determined by detection of Caspase-9 activity using a homogeneous luminescent assay. All samples were measured in triplicates. *P<0.05 vs. non-HASF treated cells.
FIG. 4C is a bar graph showing relative caspase activity in adult cardiomyocytes. Apoptosis as determined by detection of Caspase-9 activity on adult rat cardiomyocytes pre-treated with 178 μM PKC translocation inhibitor peptide for 10 minutes and then with 100 nM of HASF for 30 minutes. Thereafter, cells were challenged with 200 μM H2O2 for 3 hours. All samples were measured in triplicates. *P <0.05 vs. non-HASF treated cells and the experiment was repeated multiple times.
Adult rat ventricular cardiomyocytes were isolated from 6 weeks old female Sprague-Dawley rat (Harlan World Headquarters, Indianapolis, Ill., USA) hearts by enzymatic digestion and were seeded in (6-well) plates or Delta T culture dishes (Bioptechs, Inc., Pa.) pre-coated with 1 μg/cm2 of laminin (Sigma) at 5×10^4/well and cultured overnight in serum-free M199 medium (Sigma), supplemented with 2 mM of L-carnitine, 5 mM of creatine, 5 mM of taurine, 0.2% of albumin, 100 U/ml of penicillin and 100 μg/ml of streptomycin. […]

[2] = tested on: PKC, Raf, ERK 1/2, PDK1 phosphorylation in adult rat cardiomyocytes; assay: Western blot analysis of signaling protein phosphorylation (PKC/ERK pathway); type: cell-based; conditions: 3 μM inhibitor 30 min, then 100 nM HASF 5-10 min
Procedure: FIG. 3A is a photograph of an electrophoretic gel. HASF activates the PKC pathway. A. Western blots analysis for various signaling proteins. Serum-starved adult rat cardiomyocytes were stimulated with 100 nM HASF recombinant protein for various time courses. Cell lysate was collected and the proteins were resolved by SDS-PAGE. Insulin from bovine pancreas was used as a positive control. min: minutes of treatment.
FIG. 3B is a photograph of an immunoblot. Serum-starved adult rat cardiomyocytes were pre-treated with 3 μM PKC inhibitors BIM, Gö6976, or Gö6983 for 30 minutes, then stimulated with 100 nM HASF recombinant protein for 5-10 min and cells were harvested. Total cell lysates were used to analyze the levels of ERK1/2 phosphorylation by western blot analysis.
FIG. 4A is a photograph of an immunoblot. Western blot analysis for PKC E and PKC delta phosphorylation on total cell lysates from serum-starved adult rat cardiomyocytes stimulated with 100 nM HASF recombinant protein at 5 and 30 min. HASF b1 and b2 represent different batches of recombinant protein. PMA was used as positive control.
FIG. 4B is a photograph of an immunoblot. Western blot analysis for ERK1/2 phosphorylation on total cell lysates from adult rat cardiomyocytes pre-treated with 10 pM PKC epsilon translocation inhibitor peptide for 20 min, then 100 nM HASF recombinant protein was added for 5 min or 10 min.
FIGS. 8A-B are photographs of immunoblots. Western blot analysis for PKC a/b and PKC theta phosphorylation on total cell lysates from serum-starved adult rat cardiomyocytes stimulated with 100 nM HASF recombinant protein for the indicated times. HASF batch 1 and 2 represent different batches of recombinant protein. PMA was used as positive control.
Rabbit polyclonal antibodies for phospho-pan PKC, phospho-ERK1/2, phospho-raf, phosphor-PDK1, total Akt were obtained from Cell Signaling Tech. Rabbit polyclonal antibody for phospho-PKC epsilon, phospho-Bad, and GAPDH was obtained from Abeam. HRP-conjugated goat anti-rabbit secondary antibody was obtained from Cell Signaling Tech.

CN(C)CCCn1cc(C2=C(c3c[nH]c4ccccc34)C(=O)NC2=O)c2ccccc21.Cl [BIM, Bisindolylmalemide Hydrochloride, reference compound]
effect of PKC inhibitor on protective effects of HASF (Caspase-9 activity) [1]: abolished the protective effects
effect of PKC inhibitor on HASF-mediated ERK1/2 phosphorylation [2]: abolished

— US20120172306A1, “Use of HASF as a Protective Agent Against Ischemic Tissue Damage” (Duke University, priority 2009, published 2012)
